In ChEMBL document CHEMBL3272279, “Synthesis of 5-chloro-3'-nitro-4'-substituted salicylanilides, a new series of anthelmintic and antimicrobial agents” (1977):
In brackets after ≈: the same amount, converted by molar mass. Activity calls are given as the source filed them. The calls are words filed in the database; no cut-off is given here.

Legend:
[1] = system: Rodentolepis nana; test: Cestodicidal activity against Hymenolepis nana infected in po dosed rat administered as single dose; type: functional
[2] = system: Staphylococcus aureus; test: Antimicrobial activity against penicillin-resistant Staphylococcus aureus assessed as growth inhibition after 24 hrs by two-fold serial dilution technique; type: functional
[3] = system: Agrobacterium tumefaciens; test: Antimicrobial activity against Agrobacterium tumefaciens assessed as growth inhibition after 24 hrs by two-fold serial dilution technique; type: functional
[4] = system: Cryptococcus neoformans; test: Antimicrobial activity against Cryptococcus neoformans assessed as growth inhibition after 24 hrs by two-fold serial dilution technique; type: functional
[5] = system: Trichophyton mentagrophytes; test: Antimicrobial activity against Trichophyton mentagrophytes assessed as growth inhibition after 24 hrs by two-fold serial dilution technique; type: functional
[6] = system: Microsporum canis; test: Antimicrobial activity against Microsporum canis assessed as growth inhibition after 24 hrs by two-fold serial dilution technique; type: functional
[7] = system: Aspergillus niger; test: Antimicrobial activity against Aspergillus niger assessed as growth inhibition after 24 hrs by two-fold serial dilution technique; type: functional
[8] = system: Salmonella typhi; test: Antimicrobial activity against Salmonella typhi assessed as growth inhibition after 24 hrs by two-fold serial dilution technique; type: functional, organism-based; conditions: Salmonella enterica subsp. enterica serovar Typhi
[9] = system: Escherichia coli; test: Antimicrobial activity against Escherichia coli assessed as growth inhibition after 24 hrs by two-fold serial dilution technique; type: functional, organism-based
[10] = system: Bacillus subtilis; test: Antimicrobial activity against Bacillus subtilis assessed as growth inhibition after 24 hrs by two-fold serial dilution technique; type: functional, organism-based
[11] = system: Candida albicans; test: Antimicrobial activity against Candida albicans assessed as growth inhibition after 24 hrs by two-fold serial dilution technique; type: functional
[12] = system: Rodentolepis nana; test: Cestodicidal activity against Hymenolepis nana infected in rat at 250 mg/kg, po administered as single dose; type: functional, organism-based; set-up: dose 250 mg/kg
[13] = system: Escherichia coli; test: Antimicrobial activity against Escherichia coli assessed as growth inhibition at 0.78 ug/ml after 24 hrs by two-fold serial dilution technique; type: functional, organism-based

CN1CCN(c2ccc(NC(=O)c3cc(Cl)ccc3O)cc2[N+](=O)[O-])CC1
MED98 [1]: 100 mg/kg | MIC [2]: 0.195 µg/mL (≈ 0.499 µM) | MIC [3]: 25 µg/mL (≈ 64 µM) | MIC [4]: 25 µg/mL (≈ 64 µM) | MIC [5]: 0.195 µg/mL (≈ 0.499 µM) | MIC [6]: 0.39 µg/mL (≈ 0.998 µM) | MIC [7]: 25 µg/mL (≈ 64 µM) | growth inhibition (GI) [8]: inactive | growth inhibition (GI) [9]: inactive | growth inhibition (GI) [10]: inactive | MIC [11]: 25 µg/mL (≈ 64 µM)

O=C(Nc1ccc(N2CCCCCC2)c([N+](=O)[O-])c1)c1cc(Cl)ccc1O
MED98 [1]: 50 mg/kg | MIC [2]: 0.0975 µg/mL (≈ 0.25 µM) | MIC [3]: > 100 µg/mL | MIC [4]: > 100 µg/mL | MIC [5]: 25 µg/mL (≈ 64.1 µM) | MIC [6]: 25 µg/mL (≈ 64.1 µM) | MIC [7]: > 100 µg/mL | growth inhibition (GI) [8]: inactive | growth inhibition (GI) [9]: inactive | growth inhibition (GI) [10]: inactive | growth inhibition (GI) [11]: inactive

O=C(Nc1ccc(Oc2ccccc2)c([N+](=O)[O-])c1)c1cc(Cl)ccc1O
MED98 [1]: 250 mg/kg | MIC [2]: 0.00609 µg/mL (≈ 0.0158 µM) | MIC [3]: > 100 µg/mL | MIC [4]: > 100 µg/mL | MIC [5]: 1.56 µg/mL (≈ 4.05 µM) | MIC [6]: 0.78 µg/mL (≈ 2.03 µM) | MIC [7]: 25 µg/mL (≈ 65 µM) | growth inhibition (GI) [8]: inactive | growth inhibition (GI) [9]: inactive | growth inhibition (GI) [10]: inactive | growth inhibition (GI) [11]: inactive

Cc1cccc(Oc2ccc(NC(=O)c3cc(Cl)ccc3O)cc2[N+](=O)[O-])c1
Activity [12]: inactive | MIC [2]: 0.195 µg/mL (≈ 0.489 µM) | MIC [3]: > 100 µg/mL | MIC [4]: > 100 µg/mL | MIC [5]: 1.56 µg/mL (≈ 3.91 µM) | MIC [6]: 0.78 µg/mL (≈ 1.96 µM) | MIC [7]: > 100 µg/mL | growth inhibition (GI) [8]: inactive | growth inhibition (GI) [9]: inactive | growth inhibition (GI) [10]: inactive | growth inhibition (GI) [11]: inactive

CCOc1ccc(NC(=O)c2cc(Cl)ccc2O)cc1[N+](=O)[O-]
Activity [12]: inactive | MIC [2]: > 100 µg/mL | MIC [3]: > 100 µg/mL | MIC [4]: > 100 µg/mL | MIC [5]: > 100 µg/mL | MIC [6]: > 100 µg/mL | MIC [7]: > 100 µg/mL | growth inhibition (GI) [8]: inactive | growth inhibition (GI) [9]: inactive | growth inhibition (GI) [10]: inactive | growth inhibition (GI) [11]: inactive

CC1CCN(c2ccc(NC(=O)c3cc(Cl)ccc3O)cc2[N+](=O)[O-])CC1
MED98 [1]: 250 mg/kg | MIC [2]: 0.0975 µg/mL (≈ 0.25 µM) | MIC [3]: 25 µg/mL (≈ 64.1 µM) | MIC [4]: 3.12 µg/mL (≈ 8.02 µM) | MIC [5]: > 100 µg/mL | MIC [6]: > 100 µg/mL | MIC [7]: > 100 µg/mL | growth inhibition (GI) [8]: inactive | growth inhibition (GI) [9]: inactive | growth inhibition (GI) [10]: inactive | growth inhibition (GI) [11]: inactive

CN(C)[C@@H]1C(O)=C(C(N)=O)C(=O)[C@@]2(O)C(O)=C3C(=O)c4c(O)cccc4[C@@](C)(O)[C@H]3C[C@@H]12 [TETRACYCLINE]
MIC [3]: 0.78 µg/mL (≈ 1.76 µM) | growth inhibition (GI) [13]: Active

O=C(Nc1ccc(N2CCCCC2)c([N+](=O)[O-])c1)c1cc(Cl)ccc1O
MED98 [1]: 250 mg/kg | MIC [2]: 0.195 µg/mL (≈ 0.519 µM) | MIC [3]: 12.5 µg/mL (≈ 33.3 µM) | MIC [4]: 1.56 µg/mL (≈ 4.15 µM) | MIC [5]: > 100 µg/mL | MIC [6]: > 100 µg/mL | MIC [7]: 12.5 µg/mL (≈ 33.3 µM) | growth inhibition (GI) [8]: inactive | growth inhibition (GI) [9]: inactive | growth inhibition (GI) [10]: inactive | MIC [11]: 25 µg/mL (≈ 66.5 µM)

O=C(Nc1ccc(N2CCN(c3ccccc3)CC2)c([N+](=O)[O-])c1)c1cc(Cl)ccc1O
MED98 [1]: 50 mg/kg | MIC [2]: 0.39 µg/mL (≈ 0.861 µM) | MIC [3]: > 100 µg/mL | MIC [4]: 12.5 µg/mL (≈ 27.6 µM) | MIC [5]: 3.12 µg/mL (≈ 6.9 µM) | MIC [6]: 1.56 µg/mL (≈ 3.44 µM) | MIC [7]: 25 µg/mL (≈ 55.2 µM) | growth inhibition (GI) [8]: inactive | growth inhibition (GI) [9]: inactive | growth inhibition (GI) [10]: inactive | growth inhibition (GI) [11]: inactive

O=C(Nc1ccc(N2CCCC2)c([N+](=O)[O-])c1)c1cc(Cl)ccc1O
Activity [12]: inactive | MIC [2]: 0.0975 µg/mL (≈ 0.269 µM) | MIC [3]: > 100 µg/mL | MIC [4]: 25 µg/mL (≈ 69.1 µM) | MIC [5]: > 100 µg/mL | MIC [6]: > 100 µg/mL | MIC [7]: 25 µg/mL (≈ 69.1 µM) | growth inhibition (GI) [8]: inactive | growth inhibition (GI) [9]: inactive | growth inhibition (GI) [10]: inactive | MIC [11]: 25 µg/mL (≈ 69.1 µM)

O=C(Nc1ccc(Br)cc1)c1cc(Br)cc(Br)c1O [TRIBROMSALAN]
MIC [2]: 0.0975 µg/mL (≈ 0.217 µM) | MIC [3]: 12.5 µg/mL (≈ 27.8 µM) | MIC [4]: 6.25 µg/mL (≈ 13.9 µM) | MIC [5]: 1.56 µg/mL (≈ 3.47 µM) | MIC [6]: 0.78 µg/mL (≈ 1.73 µM) | MIC [7]: 12.5 µg/mL (≈ 27.8 µM) | growth inhibition (GI) [8]: inactive | growth inhibition (GI) [9]: inactive | growth inhibition (GI) [10]: inactive
